Results: patent publication US8431541B2, “Alpha-amylase inhibitors: the montbretins and uses thereof” (The University of British Columbia, priority 2007, dated 2013)

Tests used:
α-amylase (HPA) = target: T1, α-amylase (HPA) (Homo sapiens, UniProt P04746); assay: Glycosidase specificity: α-amylase; type: biochemical; details: at 0.1 μM Montbretin A; read-out: RA (%), Residual Enzyme Activity
T1 sequence (P04746 16-511): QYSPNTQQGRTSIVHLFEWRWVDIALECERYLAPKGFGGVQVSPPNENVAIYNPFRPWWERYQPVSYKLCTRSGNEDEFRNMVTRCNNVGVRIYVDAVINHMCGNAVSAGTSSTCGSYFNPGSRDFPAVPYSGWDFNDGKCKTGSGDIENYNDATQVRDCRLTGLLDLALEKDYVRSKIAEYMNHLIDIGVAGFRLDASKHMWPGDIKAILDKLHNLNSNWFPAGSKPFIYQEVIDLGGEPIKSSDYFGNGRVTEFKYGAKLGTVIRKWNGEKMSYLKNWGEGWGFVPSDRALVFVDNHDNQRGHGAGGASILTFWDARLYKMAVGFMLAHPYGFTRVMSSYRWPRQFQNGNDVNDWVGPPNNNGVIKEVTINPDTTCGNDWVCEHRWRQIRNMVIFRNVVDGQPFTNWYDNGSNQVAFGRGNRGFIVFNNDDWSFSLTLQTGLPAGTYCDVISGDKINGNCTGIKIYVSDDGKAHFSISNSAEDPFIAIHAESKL

[1] = Stability in simulated intestinal fluid (SIF) by UPLC; type: in vitro ADME; details: SIF pH 6.89, 37° C., within 3 hours
Experimental: (§1) The stability of montbretin A in both simulated intestinal fluid (SIF) and simulated gastric fluid (SGF) were analyzed via ultra performance liquid chromatography (UPLC). The instrument consisted of a Waters® Acquity™ UPLC system equipped with a PDA and a TQ detector in tandem. The 2 μL sample injection volume was passed through a Waters® Acquity™ BEH C18 column (1.7 μm, 2.1×100 mm), with mobile phases A and B consisting of water with 0.1% formic acid and acetonitrile with 0.1% formic acid, respectively. The mobile phases were delivered at a programmed linear gradient at a column temperature of 35° C. Linearity was evaluated using a set of montbretin A calibration standards with concentrations ranging from 10 to 100 μg/mL in water. […]
(§2) To examine the gastrointestinal fluid activity, 0.5 mg/ml solutions of oleamide (positive control) in SGF or SIF were prepared by diluting a 100 μL aliquot of oleamide (50 mg/mL in 2-propanol) to 10 mL with either SGF or SIF and incubated in a 37° C. water bath for 1 or 3 hours, respectively. At time points of 1 or 3 hours, the sample was removed from the water bath and a 100 μL aliquot of the resulting solution was diluted to 1 mL with de-ionized water in a glass UPLC glass sample vial and analyzed by UPLC for oleamide content. […]

[2] = Stability in simulated gastric fluid (SGF) by UPLC; type: in vitro ADME; details: SGF pH 1.51, 37° C., 1 hour
Experimental: as §1, §2

[3] = target: T2, β-glucosidase (Agrobacterium sp.) (Agrobacterium sp., UniProt P12614); assay: Glycosidase specificity: β-glucosidase; type: biochemical
T2 sequence (P12614 1-459): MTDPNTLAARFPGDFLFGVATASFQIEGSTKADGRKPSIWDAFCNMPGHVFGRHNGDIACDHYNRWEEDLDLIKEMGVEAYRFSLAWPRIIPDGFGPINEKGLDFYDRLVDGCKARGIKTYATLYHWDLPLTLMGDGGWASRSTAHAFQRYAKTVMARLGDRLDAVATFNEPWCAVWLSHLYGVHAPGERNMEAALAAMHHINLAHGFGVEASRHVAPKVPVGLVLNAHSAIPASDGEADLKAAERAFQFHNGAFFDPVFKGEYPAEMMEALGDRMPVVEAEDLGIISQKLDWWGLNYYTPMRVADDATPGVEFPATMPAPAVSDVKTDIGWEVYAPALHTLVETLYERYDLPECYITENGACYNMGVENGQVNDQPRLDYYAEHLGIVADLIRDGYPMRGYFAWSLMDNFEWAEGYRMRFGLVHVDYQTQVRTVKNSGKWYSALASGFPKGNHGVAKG
Excerpt: The subsequent residue of montbretin A is also a β-linked glucose residue, however this residue bears a large 6-O-caffeic ester moiety and would therefore not be processed by Abg. […] Thus, the terminal glucosyl residue on the trisaccharide moiety is not required for α-amylase activity.

[4] = target: T3, human pancreatic α-amylase (HPA) (Homo sapiens, UniProt P04746); assay: Kinetic analysis of HPA inhibition; type: biochemical
T3 sequence (P04746 16-511): T1 sequence (P04746 16-511)

Question: What does the source list for `CC1O[C@@H](O[C@@H]2CO[C@@H](Oc3c(O)cc(-c4oc5cc(O)cc(O)c5c(=O)c4O[C@@H]4OC(C)[C@H](O)[C@H](O)C4O[C@@H]4OC(COC(=O)/C=C/c5ccc(O)c(O)c5)[C@@H](O)[C@@H](O)C4O[C@@H]4OC(CO)[C@@H](O)[C@@H](O)C4O)cc3O)C(O)[C@@H]2O)C(O)[C@@H](O)[C@H]1O` (stereo partly shown) [Montbretin A, montbretin A]?
Answer: remaining activity at 0.1 µM (α-amylase (HPA)): 11%; degradation in SIF [1]: no significant degradation; degradation or loss in SGF [2]: ~10%; remaining activity at 0.1 µM ([3]; at 0.1 μM Montbretin A, read-out: RA (%), Residual Enzyme Activity): 100%; inhibition of β-glucosidase from Agrobacterium (Abg) ([3]; extent of inhibition decreasing with time): time dependent inhibition; inhibition of Abg after pre-incubation ([3]; pre-incubation with Abg prior to addition of assay substrate): no inhibition; mode of inhibition of HPA ([4]; double reciprocal plot): competitive; effect of calcium on HPA inhibition ([4]; presence of 1 mM calcium chloride): no change in inhibition; effect of DTT on HPA inhibition ([4]; presence vs absence of 5 mM dithiothreitol): No effect; Ki ([4]; varied substrate and inhibitor concentrations, GraFit): 8.1 ± 0.5 nM
